Earlier results as cited in patent US20240342131A1, “Multivitamin for Cystic Fibrosis Patients Undergoing Cystic Fibrosis Transmembrance Conductance Regulator Gene Modulator Therapy” (priority 2021, published 2024).

Conditions: high doses

In the case of O=C1O[C@H]([C@@H](O)CO)C(O)=C1O [vitamin C], the side effect is given as “secretory diarrhea”.
